Results from US4962110A, “Pyridazinone derivatives” (Smith Kline & French Laboratories Limited, priority 1989, dated 1990).

What was measured:
PDE (Peak III) = assay: Inhibition of phosphodiesterase PDE (Peak III) from cat heart; conditions: read-out: IC50 PDE (Peak III); 1 μM cyclic AMP, 37°, pH 7.5
Method: (§1) The enzyme was assayed by incubation at 37° for 4-30 min in 50 mM Tris, 5 mM MgCl2, pH 7.5 with [3-H] cyclic nucleotide (4×10^5 disintegrations min^-1) and [14-C] nucleotide 5' monophosphate (3-10^3 disintegrations min^-1). The assay was stopped by boiling, and the [3-H] […] The reaction mixture was diluted with 0.5 ml 100 mM HEPES (N-2-Hydroxyethylpiperazine-N'-2-ethanesulfonic acid), 100 mM NaCl, pH 8.5, and applied to the column. […] The recovery of product as judged by [14-C] recovery was approximately 80%. All assays were linear with time of incubation and concentration of enzyme over the range used in these experiments.

[1] = system: right ventricular strips (force of contraction); assay: Cardiac stimulant activity in vitro: force of contraction of electrically stimulated guinea pig ventricular strips; parameters: species or system Guinea pigs; conditions: Cavia porcellus, read-out: EC50 (50% increase in the force of contraction of the ventricular strips); guinea pig right ventricle strips, Krebs Henseleit, 37° C., 1.0 Hz, cumulative concentration response
Method: CARDIAC STIMULANT ACTIVITY--IN VITRO
The compounds of formula (I) and their pharmaceutically acceptable salts are tested for cardiac stimulant activity following a procedure based on that of S. C. Verma and J. H. McNeill (J. Pharm & Exp. Therapeutics, 200, 352-362 (1977)). Guinea pigs (500-700 g) of either sex are sacrificed and the hearts are quickly removed and transferred to a dissecting dish containing oxygenated bathing fluid. While in the bathing medium, the right ventricle is cut into two strips. The strips are each suspended in a 50 ml bath containing Krebs Henseleit solution at 37° C., and the bath is bubbled with 95% oxygen and 5% carbon dioxide. The ventricular strips are electrically stimulated at a frequency of 1.0 Hz, at double the threshold voltage. A resting tension of 1.0 g is applied to the strips and the tension is kept constant by readjustment during an equilibration period of 60 minutes. The bathing fluid is frequently changed during this period. When a steady base line is obtained, a compound under test is added to the bathing fluid and a cumulative concentration response curve is plotted.

PDE (Peak II) = conditions: in words
Method: as §1

PDE (Peak I) = assay: Characterisation of PDE (Peak I) from cat heart: substrate kinetics; assay type: biochemical

Structure (SMILES) | IC50 (PDE (Peak III)) | further results
Nc1cc(-c2ccncc2)c[nH]c1=O [Amrinone] | 51800 nM | 
Cc1[nH]c(=O)c(C#N)cc1-c1ccncc1 [Milrinone] | 2200 nM | 
CC1CC(=O)NN=C1c1ccc(Nc2nc(=O)cc[nH]2)cc1 (centres unmarked) [Example 1, 6-[4-(1,4-Dihydro-4-oxo-2-pyrimidinylamino)phenyl]-5-methyl-4,5-dihydro-3(2H)-pyridazinone] | 690 nM | EC50 [1]: 600 nM
Cc1cc(=O)nc(Nc2ccc(C3=NNC(=O)CC3C)cc2)[nH]1 (centres unmarked) [Example 2, 6-[4-(1,4-Dihydro-6-methyl-4-oxo-2-pyrimidinylamino)phenyl]-5-methyl-4,5-dihydro-3(2H)-pyridazinone] | 450 nM | 
Nc1nc2c(ncn2[C@@H]2O[C@@H]3COP(=O)(O)O[C@H]3[C@H]2O)c(=O)[nH]1 [cyclic GMP] |  | affinity (PDE (Peak II)): relatively low affinities; affinity (PDE (Peak I); in words): high affinity; Km (PDE (Peak I); with 50 μg/ml calmodulin): 1.4 µM; Relative Vmax (PDE (Peak I); with 50 μg/ml calmodulin): 7.2

Further lines, with some results ahead:

IC50 (PDE (Peak III)) | Structure (SMILES) | further results
1120 nM | Cc1c[nH]c(Nc2ccc(C3=NNC(=O)CC3C)cc2)nc1=O (centres unmarked) [Example 3, 6-[4-(1,4-Dihydro-5-methyl-4-oxo-2-pyrimidinylamino)-phenyl]-5-methyl-4,5-dihydro-3(2H)-pyridazinone] | 
150 nM | CC1CC(=O)NN=C1c1ccc(Nc2nc(=O)c3ccccc3[nH]2)cc1 (centres unmarked) [Example 4, 6-[4-(1,4-Dihydro-4-oxo-2-quinazolinylamino)phenyl]-5-methyl-4,5-dihydro-3(2H)-pyridazinone] | 
